Assay results taken from article PMC6934184, “Selective DNA-PKcs inhibition extends the therapeutic index of localized radiotherapy and chemotherapy” (The Journal of Clinical Investigation, 2019).

Target: T1, STK17A (DRAK1) (Homo sapiens, UniProt Q9UEE5)
T1 construct: purchased Thermo Fisher Scientific (Life Technologies) SelectScreen
Test: SelectScreen LanthaScreen
Assay type: binding
Settings: read-out: % displacement
How it was run: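 NU5455 was profiled across the SelectScreen Broad panel of kinase activity and binding assays. Z'LYTE reactions such as CSF1R ran at apparent Km ATP, while the Adapta CAMK1 assay used ATP listed as 10. Values are given as percent.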

T1 sequence (Q9UEE5 whole entry): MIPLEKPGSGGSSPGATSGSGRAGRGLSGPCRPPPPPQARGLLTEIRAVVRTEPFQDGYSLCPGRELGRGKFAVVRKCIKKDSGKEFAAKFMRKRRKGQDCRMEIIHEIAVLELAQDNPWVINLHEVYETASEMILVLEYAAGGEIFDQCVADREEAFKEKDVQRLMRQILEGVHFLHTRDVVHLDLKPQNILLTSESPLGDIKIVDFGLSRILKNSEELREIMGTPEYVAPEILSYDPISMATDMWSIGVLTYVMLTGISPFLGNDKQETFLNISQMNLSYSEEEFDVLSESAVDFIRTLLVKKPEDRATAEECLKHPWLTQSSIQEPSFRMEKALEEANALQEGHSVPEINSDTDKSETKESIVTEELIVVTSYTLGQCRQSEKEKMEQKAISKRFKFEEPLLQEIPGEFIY

CN(C(=O)CN1CCOCC1)c1ccc2sc3c(-c4cccc5c(=O)cc(N6CC7CCC(C6)O7)oc45)cccc3c2c1 [NU5455]
inhibition at 1 µM: -6.6%
